# Measurements published in ChEMBL document CHEMBL1201862, “PubChem BioAssay data set” (2004).
# Active and inactive are the calls of the source.
# Key:
# [1] = target: Peroxisome proliferator-activated receptor gamma/Nuclear receptor coactivator 2 (Homo sapiens, UniProt P37231); assay: (§1) TR-FRET dose response biochemical High Throughput Screening assay for agonists of the steroid receptor coactivator 2 (SRC-2) recruitment by the peroxisome proliferator-activated receptor gamma (PPAR gamma): non-selective agonists. [Related pubchem assays: 1297, 1032 ]; assay type: functional
# [2] = target: Peroxisome proliferator-activated receptor gamma/Nuclear receptor coactivator 3 (Homo sapiens, UniProt P37231); assay: as §1, with “3 (SRC-3)” for “2 (SRC-2)”, “1301 (Confirmation screen.), 1048 (Primary screen.)]” for “1297, 1032 ]”; assay type: functional
# [3] = target: Peroxisome proliferator-activated receptor gamma/Nuclear receptor coactivator 1 (Homo sapiens, UniProt P37231); assay: as §1, with “1 (SRC-1)” for “2 (SRC-2)”, “assays (depositor defined):AID1300, AID1808, AID504735, AID631]” for “assays: 1297, 1032 ]”; assay type: protein assay
# [4] = target: T1, Alkaline phosphatase, tissue-nonspecific isozyme (Homo sapiens, UniProt P05186); assay: human TNAP enzyme inhibitors, SAR follow-up, biochemical, luminescent, dose response (AID 1056)
# T1 sequence (P05186 whole entry): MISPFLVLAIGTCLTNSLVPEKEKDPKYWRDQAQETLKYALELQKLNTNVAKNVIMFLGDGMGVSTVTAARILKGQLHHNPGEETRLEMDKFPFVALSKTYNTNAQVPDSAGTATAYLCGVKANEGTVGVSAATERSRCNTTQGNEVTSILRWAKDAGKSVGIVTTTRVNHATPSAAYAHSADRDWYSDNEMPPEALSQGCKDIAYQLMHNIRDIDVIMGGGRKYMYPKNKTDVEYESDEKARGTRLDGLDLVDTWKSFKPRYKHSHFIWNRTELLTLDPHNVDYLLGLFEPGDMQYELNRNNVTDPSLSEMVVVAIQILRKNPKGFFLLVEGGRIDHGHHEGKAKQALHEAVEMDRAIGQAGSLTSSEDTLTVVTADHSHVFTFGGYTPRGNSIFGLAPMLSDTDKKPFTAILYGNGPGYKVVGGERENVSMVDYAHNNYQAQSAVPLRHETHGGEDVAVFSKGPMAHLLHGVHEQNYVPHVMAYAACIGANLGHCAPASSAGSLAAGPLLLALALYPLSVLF
# [5] = target: Glyceraldehyde-3-phosphate dehydrogenase (Homo sapiens, UniProt P04406)
# [6] = target: T2, ORF 73 (Human herpesvirus 8, UniProt O40947); assay: inhibitors of C-LANA binding to LBS DNA, dose response, biochemical, fluorescence polarization, cherry-picked samples (AID 504725); set-up: species or system Human gammaherpesvirus 8;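 also: fluorescence polarization of a labeled DNA duplex reporting LANA DNA binding; potency is for inhibitors that block LANA binding to the DNA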
# T2 sequence (O40947 whole entry): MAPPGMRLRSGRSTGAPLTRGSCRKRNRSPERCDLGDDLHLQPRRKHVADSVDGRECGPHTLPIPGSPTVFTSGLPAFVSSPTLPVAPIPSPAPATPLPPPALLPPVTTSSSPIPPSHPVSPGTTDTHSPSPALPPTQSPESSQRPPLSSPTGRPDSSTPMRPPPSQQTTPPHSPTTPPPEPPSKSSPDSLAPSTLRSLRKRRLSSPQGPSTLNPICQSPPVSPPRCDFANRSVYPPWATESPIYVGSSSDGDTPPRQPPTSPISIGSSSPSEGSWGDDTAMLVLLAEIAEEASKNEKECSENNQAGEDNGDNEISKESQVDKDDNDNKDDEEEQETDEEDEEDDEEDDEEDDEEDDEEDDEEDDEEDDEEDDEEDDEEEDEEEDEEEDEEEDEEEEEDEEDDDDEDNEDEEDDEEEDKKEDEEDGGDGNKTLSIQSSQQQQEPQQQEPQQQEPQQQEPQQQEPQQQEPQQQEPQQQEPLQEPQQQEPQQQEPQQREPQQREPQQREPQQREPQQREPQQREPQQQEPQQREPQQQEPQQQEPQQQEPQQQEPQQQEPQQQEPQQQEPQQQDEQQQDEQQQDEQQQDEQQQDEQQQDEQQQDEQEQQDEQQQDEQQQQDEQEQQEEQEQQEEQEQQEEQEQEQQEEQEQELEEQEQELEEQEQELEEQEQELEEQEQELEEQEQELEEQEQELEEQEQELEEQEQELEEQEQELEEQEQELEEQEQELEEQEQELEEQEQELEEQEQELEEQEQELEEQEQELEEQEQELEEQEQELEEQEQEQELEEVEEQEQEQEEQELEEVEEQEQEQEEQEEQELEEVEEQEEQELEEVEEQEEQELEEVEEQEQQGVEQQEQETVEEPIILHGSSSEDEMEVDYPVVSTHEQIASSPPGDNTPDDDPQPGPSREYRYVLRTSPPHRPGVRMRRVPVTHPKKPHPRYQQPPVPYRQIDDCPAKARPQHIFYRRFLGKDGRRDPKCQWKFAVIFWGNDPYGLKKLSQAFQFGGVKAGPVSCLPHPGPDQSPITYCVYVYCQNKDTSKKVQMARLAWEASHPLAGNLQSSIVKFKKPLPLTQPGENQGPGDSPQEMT
# [7] = HeLa cell cytotoxicity, dose response, cytotoxicity control for MgcRacGAP inhibitor project (AID 624300); assay type: functional
# [8] = system: HEK293; assay: optical interference in Abeta FP readout, dose response, artefact control for IDE activator project, biochemical, fluorescence polarization (AID 588442); assay type: functional, cell-based; settings: Homo sapiens
# [9] = target: T3, Insulin-degrading enzyme (Homo sapiens, UniProt P14735); assay: activators of endogenous IDE in HEK cells, dose response, cell-based, fluorescence polarization (AID 588439); assay type: functional
# T3 sequence (P14735 whole entry): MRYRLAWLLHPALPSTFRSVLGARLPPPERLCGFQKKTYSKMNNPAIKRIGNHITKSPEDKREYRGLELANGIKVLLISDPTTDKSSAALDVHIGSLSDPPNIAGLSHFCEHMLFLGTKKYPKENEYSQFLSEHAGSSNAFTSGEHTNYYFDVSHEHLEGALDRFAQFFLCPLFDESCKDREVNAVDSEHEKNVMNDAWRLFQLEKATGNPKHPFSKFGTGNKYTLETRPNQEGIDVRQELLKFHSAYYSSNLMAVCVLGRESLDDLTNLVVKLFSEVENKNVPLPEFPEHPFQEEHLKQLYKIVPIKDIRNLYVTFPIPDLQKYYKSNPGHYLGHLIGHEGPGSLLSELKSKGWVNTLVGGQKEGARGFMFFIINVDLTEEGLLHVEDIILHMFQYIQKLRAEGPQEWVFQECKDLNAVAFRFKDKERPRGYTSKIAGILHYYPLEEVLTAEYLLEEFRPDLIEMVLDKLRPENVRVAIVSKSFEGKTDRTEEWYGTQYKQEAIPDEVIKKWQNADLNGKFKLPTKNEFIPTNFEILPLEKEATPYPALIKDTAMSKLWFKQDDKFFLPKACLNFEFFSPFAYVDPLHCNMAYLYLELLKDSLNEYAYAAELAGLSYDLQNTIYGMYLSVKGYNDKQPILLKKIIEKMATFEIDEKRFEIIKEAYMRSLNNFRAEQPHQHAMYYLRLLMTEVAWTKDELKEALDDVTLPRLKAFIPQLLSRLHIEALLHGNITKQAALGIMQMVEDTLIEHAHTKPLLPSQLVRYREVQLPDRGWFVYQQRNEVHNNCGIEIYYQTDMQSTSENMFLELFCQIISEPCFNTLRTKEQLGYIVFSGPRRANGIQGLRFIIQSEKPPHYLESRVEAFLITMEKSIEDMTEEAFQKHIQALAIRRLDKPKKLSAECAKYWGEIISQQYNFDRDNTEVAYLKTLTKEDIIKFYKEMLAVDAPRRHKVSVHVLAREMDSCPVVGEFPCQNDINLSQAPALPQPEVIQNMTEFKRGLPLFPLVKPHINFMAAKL
# [10] = target: T4, Rac GTPase-activating protein 1 (Homo sapiens, UniProt Q9H0H5); assay: MgcRacGAP GTPase-activating activity inhibitors, confirmation, biochemical, ADP Hunter fluorescence, primary and confirmatory (AID 624330); assay type: functional
# T4 sequence (Q9H0H5 whole entry): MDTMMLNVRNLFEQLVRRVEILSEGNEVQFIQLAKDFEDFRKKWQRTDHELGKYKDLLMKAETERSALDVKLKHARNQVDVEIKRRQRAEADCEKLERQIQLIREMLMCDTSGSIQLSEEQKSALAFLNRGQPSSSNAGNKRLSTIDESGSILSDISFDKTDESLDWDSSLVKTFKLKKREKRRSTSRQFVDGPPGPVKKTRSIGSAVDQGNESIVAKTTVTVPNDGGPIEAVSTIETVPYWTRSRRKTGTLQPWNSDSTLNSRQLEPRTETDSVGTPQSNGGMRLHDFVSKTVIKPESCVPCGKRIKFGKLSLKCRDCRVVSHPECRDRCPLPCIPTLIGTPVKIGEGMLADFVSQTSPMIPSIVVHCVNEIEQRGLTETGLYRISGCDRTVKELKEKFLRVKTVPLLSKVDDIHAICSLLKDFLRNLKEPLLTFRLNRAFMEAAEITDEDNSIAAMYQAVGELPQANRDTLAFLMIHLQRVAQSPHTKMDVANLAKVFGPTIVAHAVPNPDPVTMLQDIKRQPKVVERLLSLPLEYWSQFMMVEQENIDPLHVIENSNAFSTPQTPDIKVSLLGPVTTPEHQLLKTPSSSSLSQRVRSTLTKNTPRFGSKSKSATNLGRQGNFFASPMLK
# [11] = target: T3, Insulin-degrading enzyme; assay: activators of recombinant IDE enzyme, dose response, counter-screen for IDE activator project, biochemical, fluorescence polarization (AID 588681)
# [12] = system: HeLa; assay: HeLa cell cytotoxicity, dose response, cytotoxicity control, 24 h, cherry-picked samples (AID 504726); assay type: functional, cell-based; settings: Homo sapiens;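 also: potency for cytotoxicity as loss of luminescence signal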
# [13] = system: HEK293; assay: HEK cell cytotoxicity by LDH release, dose response, cytotoxicity control for IDE activator project, fluorescence, HEK cells (AID 588440); assay type: functional, cell-based; settings: Homo sapiens;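 also: cytotoxicity by LDH release measuring loss of membrane integrity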
# [14] = target: Nonstructural protein 1 (Influenza A virus, UniProt Q194T2); assay type: functional, Influenza A virus (A/California/07/2009(H1N1))
# Chain of Nonstructural protein 1 (Q194T2 whole entry): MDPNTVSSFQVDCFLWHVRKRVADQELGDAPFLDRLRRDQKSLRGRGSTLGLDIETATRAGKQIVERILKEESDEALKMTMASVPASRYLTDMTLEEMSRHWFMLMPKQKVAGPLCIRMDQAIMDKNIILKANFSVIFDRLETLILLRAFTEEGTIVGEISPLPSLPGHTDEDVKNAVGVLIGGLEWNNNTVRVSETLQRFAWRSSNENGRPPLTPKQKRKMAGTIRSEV
# Chain of Peroxisome proliferator-activated receptor gamma/Nuclear receptor coactivator 1 (P37231 whole entry): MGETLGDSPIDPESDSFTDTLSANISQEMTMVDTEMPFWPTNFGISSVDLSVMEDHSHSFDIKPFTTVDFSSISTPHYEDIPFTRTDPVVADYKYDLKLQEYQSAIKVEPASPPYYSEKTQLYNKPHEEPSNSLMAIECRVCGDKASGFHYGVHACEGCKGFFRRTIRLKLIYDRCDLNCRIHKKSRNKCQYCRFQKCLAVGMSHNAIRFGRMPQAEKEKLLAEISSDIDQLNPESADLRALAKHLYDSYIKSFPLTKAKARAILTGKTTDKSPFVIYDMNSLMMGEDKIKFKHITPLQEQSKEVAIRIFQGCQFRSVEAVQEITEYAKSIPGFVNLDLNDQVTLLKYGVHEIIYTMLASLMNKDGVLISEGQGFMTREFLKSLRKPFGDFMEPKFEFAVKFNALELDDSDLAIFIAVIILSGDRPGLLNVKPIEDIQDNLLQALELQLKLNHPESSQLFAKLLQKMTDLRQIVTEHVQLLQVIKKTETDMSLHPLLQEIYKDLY
# Chain of Peroxisome proliferator-activated receptor gamma/Nuclear receptor coactivator 1 (Q15788 whole entry, further chain): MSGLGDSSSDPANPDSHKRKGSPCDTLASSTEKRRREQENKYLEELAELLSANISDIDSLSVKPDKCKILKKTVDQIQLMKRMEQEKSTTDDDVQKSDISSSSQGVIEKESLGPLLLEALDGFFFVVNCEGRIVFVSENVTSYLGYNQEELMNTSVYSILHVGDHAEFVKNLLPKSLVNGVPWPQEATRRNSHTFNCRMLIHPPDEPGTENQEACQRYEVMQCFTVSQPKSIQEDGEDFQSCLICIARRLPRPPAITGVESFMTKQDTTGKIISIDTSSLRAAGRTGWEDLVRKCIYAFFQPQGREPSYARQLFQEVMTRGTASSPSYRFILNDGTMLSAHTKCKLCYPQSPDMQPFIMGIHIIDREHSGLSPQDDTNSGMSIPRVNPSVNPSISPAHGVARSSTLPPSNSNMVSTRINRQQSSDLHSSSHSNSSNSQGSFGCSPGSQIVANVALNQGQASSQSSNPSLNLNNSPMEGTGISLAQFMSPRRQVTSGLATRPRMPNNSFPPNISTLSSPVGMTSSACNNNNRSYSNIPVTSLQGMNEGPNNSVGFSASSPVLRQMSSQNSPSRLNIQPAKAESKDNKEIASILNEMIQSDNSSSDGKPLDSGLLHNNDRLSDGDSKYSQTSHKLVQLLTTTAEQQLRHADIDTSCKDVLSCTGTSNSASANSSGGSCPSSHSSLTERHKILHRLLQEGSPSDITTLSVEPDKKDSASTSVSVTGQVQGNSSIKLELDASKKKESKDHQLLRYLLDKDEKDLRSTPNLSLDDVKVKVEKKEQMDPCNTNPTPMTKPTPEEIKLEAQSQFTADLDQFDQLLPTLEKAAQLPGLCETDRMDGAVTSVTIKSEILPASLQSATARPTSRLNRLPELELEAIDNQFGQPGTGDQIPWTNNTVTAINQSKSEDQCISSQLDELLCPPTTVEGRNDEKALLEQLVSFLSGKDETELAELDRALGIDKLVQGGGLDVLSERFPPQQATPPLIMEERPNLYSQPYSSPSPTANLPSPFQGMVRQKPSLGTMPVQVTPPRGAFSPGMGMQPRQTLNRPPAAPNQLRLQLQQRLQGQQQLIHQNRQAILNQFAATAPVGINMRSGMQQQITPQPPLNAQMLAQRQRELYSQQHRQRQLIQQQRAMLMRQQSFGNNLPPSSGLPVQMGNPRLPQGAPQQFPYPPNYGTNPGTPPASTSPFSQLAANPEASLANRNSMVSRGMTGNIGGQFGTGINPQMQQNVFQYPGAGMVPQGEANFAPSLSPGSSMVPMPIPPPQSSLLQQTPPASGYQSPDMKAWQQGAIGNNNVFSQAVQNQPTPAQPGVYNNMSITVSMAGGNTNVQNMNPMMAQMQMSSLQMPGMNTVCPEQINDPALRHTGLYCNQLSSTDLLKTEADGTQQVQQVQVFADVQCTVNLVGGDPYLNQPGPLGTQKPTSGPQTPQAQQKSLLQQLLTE
# Chain of Peroxisome proliferator-activated receptor gamma/Nuclear receptor coactivator 3 (P37231 whole entry): as the sequence (P37231 whole entry) above
# Chain of Peroxisome proliferator-activated receptor gamma/Nuclear receptor coactivator 3 (Q9Y6Q9 whole entry, further chain): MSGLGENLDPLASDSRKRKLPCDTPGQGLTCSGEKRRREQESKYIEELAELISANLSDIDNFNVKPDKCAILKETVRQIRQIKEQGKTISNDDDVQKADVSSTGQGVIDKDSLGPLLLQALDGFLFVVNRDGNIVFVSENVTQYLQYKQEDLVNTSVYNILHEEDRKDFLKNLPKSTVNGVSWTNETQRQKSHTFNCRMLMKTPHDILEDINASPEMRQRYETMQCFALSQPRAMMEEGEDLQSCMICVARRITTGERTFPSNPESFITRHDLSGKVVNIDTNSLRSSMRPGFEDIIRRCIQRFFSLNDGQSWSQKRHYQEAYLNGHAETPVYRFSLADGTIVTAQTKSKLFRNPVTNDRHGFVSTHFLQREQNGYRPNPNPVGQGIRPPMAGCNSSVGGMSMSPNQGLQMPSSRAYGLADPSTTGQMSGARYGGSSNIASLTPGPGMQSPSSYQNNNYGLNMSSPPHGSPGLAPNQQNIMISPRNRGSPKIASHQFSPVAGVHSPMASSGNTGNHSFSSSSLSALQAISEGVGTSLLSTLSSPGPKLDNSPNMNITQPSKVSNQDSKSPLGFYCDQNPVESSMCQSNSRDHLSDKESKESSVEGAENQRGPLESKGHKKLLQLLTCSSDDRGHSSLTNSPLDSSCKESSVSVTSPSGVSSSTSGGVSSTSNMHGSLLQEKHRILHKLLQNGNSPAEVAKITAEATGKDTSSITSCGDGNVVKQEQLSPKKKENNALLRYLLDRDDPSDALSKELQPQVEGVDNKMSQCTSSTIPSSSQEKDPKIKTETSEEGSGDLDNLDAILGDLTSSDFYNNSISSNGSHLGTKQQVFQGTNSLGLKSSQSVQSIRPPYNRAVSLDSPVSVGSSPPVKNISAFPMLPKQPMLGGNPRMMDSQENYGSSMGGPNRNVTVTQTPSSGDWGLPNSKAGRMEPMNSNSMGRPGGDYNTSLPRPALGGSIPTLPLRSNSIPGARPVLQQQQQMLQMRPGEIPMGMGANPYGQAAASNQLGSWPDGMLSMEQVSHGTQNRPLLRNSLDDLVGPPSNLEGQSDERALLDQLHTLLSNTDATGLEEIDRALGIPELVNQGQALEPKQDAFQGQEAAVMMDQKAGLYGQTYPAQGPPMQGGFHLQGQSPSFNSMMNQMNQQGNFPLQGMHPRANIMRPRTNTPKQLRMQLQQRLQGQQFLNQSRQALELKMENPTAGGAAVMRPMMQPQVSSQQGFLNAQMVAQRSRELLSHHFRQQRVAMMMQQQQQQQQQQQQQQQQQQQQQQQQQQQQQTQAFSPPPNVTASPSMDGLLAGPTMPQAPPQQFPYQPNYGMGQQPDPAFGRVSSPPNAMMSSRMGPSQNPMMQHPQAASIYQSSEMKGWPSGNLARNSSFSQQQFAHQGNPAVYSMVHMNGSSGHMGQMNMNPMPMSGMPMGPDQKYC
# Chain of Glyceraldehyde-3-phosphate dehydrogenase (P04406 whole entry): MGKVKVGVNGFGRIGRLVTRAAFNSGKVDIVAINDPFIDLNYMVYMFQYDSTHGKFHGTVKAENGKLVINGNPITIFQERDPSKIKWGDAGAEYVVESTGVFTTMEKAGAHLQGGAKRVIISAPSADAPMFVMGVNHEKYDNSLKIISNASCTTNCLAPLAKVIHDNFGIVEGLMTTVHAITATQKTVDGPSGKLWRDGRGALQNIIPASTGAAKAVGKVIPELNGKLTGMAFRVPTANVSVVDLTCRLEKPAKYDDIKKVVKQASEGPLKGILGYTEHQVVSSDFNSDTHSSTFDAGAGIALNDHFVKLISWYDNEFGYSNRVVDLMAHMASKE
compound,measurement,setting,value
COc1ccc2nc(SCc3cccnc3)c(C#N)cc2c1,EC50,[1],9.26 µM (active)
same,EC50,[2],22.1 µM (not active)
same,EC50,[3],9.56 µM (active)
O=C(CSc1ncnc2c1oc1ccccc12)Nc1nc2ccccc2s1,EC50,[1],> 79.4 µM (not active)
same,EC50,[2],> 79.4 µM (not active)
same,EC50,[3],> 79.4 µM (inactive)
Cc1c(C(=O)O)nnn1-c1ccc(F)cc1,IC50,[4],> 100 µM (inactive)
same,IC50,[5],> 100 µM (not active)
Nc1ccc2c3[nH]c4cc(N)ccc4cc-3nc2c1,AC50,[6],0.758 µM (active)
same,CC50,[7],8.81 µM (active)
same,EC50,[8],> 54.7 µM (inactive)
same,EC50,[9],> 54.7 µM (inactive)
same,IC50,[10],44.7 µM (active)
same,EC50,[11],> 54.7 µM (inactive)
same,AC50,[12],7.72 µM (active)
same,IC50,[13],> 89.2 µM (inactive)
same,IC50,[14],21.1 µM (active)
